{
  "source": "patent US8846066B2",
  "about": "“Methods and related compositions for reduction of fat and skin tightening” (The Regents of the University of California, priority 2004, dated 2014)",
  "key": {"[1]": {"test_system": "CHL", "experiment": "Killing by DC after pre-incubation with human lipoma fat, CHL", "assay_type": "cell-based", "protocol": "The experiment was performed on a series of immortalized melanocyte cell lines. Resected human lipomas were ground up, and DC-containing media was mixed with the human fat and agitated for 24 hours. The material was centrifuged to pellet insoluble contents. The supernatants were then added on top of cultured melanocytes. Control was the identical DC-containing media not exposed to the fat chunks. Also, fat alone (no media) was added as a control."}, "[2]": {"test_system": "porcine fat tissue", "experiment": "MTS assay in fresh porcine fat specimens", "assay_type": "cell-based", "conditions": "PBF or 5% solutions, 4 hours", "protocol": "(§1) To measure cell viability after detergent treatment, HaCaT human keratinocyte cells were cultured in DMEM (Dulbecco's modified Eagle's medium) supplemented with 10% fetal calf serum, penicillin, and streptomycin. […] Cell viability was determined by an absorbance spectrophotometer (at 490 nm) after 4 hour incubation with the assay at 37° C. To determine cell viability in fresh tissue, fat specimens were incubated for 4 hours in 24 well plates with stock reagents and the MTS assay. Tissue specimens were then visualized for color change and the amount of MTS in their supernatants was measured by absorbance (at 490 nm). All studies were performed in triplicate. Absorbance at 490 nm (OD 490) is proportional to the number of living cells in the culture.\nPorcine tissue was obtained immediately after sacrifice, shaved, and placed on ice for a maximum of four hours before use. […] Calcein retention was determined by tissue fluorescence using purple (411 nm) light and visually observing the emitted green (500 nm) light using an emission filters.\nFresh porcine skin was used to determine if the effects of these detergent substances on cultured cells were similar in tissue. […] The difference in fat cell viability between the solutions was quantified by measuring the absorbance (at 490) of the supernatants collected from the treated fat specimens (FIG. 3b). […]"}, "[3]": {"test_system": "HaCaT cells", "experiment": "Lactate dehydrogenase (LDH) release assay, cell lysis", "assay_type": "cell-based, human", "conditions": "for LDH release (OD 490): 30 min at 37° C.", "protocol": "Cell lysis in response to detergent treatment was determined in HaCaT cells incubated with the reagents at the indicated cell dilutions for 30 min at 37° C. Lysis in cultured cells was measured using a lactate dehydrogenase (LDH) assay and within tissue using calcein, a fluorescent marker retained in cells with intact cell membranes. The LDH assay measures the activity of LDH, which is a cytosolic enzyme released when cells are lysed. Lactate dehydrogenase release was measured by absorbance (at 490 nm) after a 1 hour incubation with the LDH assay as recommended by the manufacturer (CytoTox 96 Non-Radioactive Cytotoxicity Assay, Promega). All studies were performed in triplicate. LDH release is directly proportional to absorbance at 490 nm (OD 490)."}, "[4]": {"test_system": "primary adipocytes", "experiment": "MTS survival of adipocytes after DC with or without 1% PC", "assay_type": "cell-based, human", "conditions": "30 min; for Adipocytes surviving in DC only: MTS OD 490 nm, single wells; for Average (DC only): mean MTS OD 490 nm", "protocol": "Adipocytes in adipocyte media on a 96-well dish were differentiated at 37° C. in a humidified, 5% CO2 incubator for a week. Media was aspirated and washed with 1×PBS once. Cells were treated with different concentrations of DC (from 0 to 0.5%) with or without 1% PC in 1×PBS. Each treatment was done in triplicates (Table 5). The plates were incubated at 37° C. in a humidified, 5% CO2 incubator for 30 min. The incubated plates were aspirated and washed with 1×PBS.\n10 mL of MTS (3-(4,5-dimethyl-2-yl)-5-(3-carboxymethoxyphenyl)-2-(4-sulfophenyl)-2H-tetrazolium, inner salt) assay solution was prepared (mixed 40 uL MTS (Promega, Madison Wis.) per 1 mL 1×PBS). 100 ul of MTS solution was added to each well of the plates. The plates were incubated at 37° C. incubator (non-humidified) for 120 min. OD was taken with spectrophotometer at 490 nm.\nFIG. 8 illustrates the survival of adipocytes in sodium deoxycholate solution and sodium deoxycholate with 1% phosphatidylcholine solution. The adipocyte cells are primary (i.e., taken freshly from a person) adipocytes, cultured in vitro to maturity before treatment with DC. On y-axis, 1 represents 100% survival when no DC is added. All % concentrations are w/v %. […] The addition of sodium deoxycholate with 1% phosphatidylcholine solution increases the LD50 by ˜5-6 fold."}, "[5]": {"test_system": "HaCaT human keratinocyte cells", "experiment": "MTS cell viability assay in cultured HaCaT cells", "assay_type": "cell-based", "conditions": "for cell viability (MTS, OD 490): 30 min at 37° C.", "protocol": "as §1"}, "[6]": {"test_system": "adipocytes", "experiment": "Adipocyte survival on addition of PC to 4.75% DC", "assay_type": "cell-based", "conditions": "for Average / Adipocytes surviving by adding PC to 4.75% DC: 4.75% DC; for Adipocytes surviving by adding PC to 4.75% DC: single wells", "protocol": "FIG. 9 illustrates survival of adipocytes when phosphatidylcholine is added to 4.75% sodium deoxycholate solution. On y-axis, 1 represents 100% survival. All % concentrations are w/v %. Survival of the cells in the absence of DC and PC is on an average 0.113."}, "[7]": {"conditions": "single wells, DC 0.1% media not exposed to fat"}, "[8]": {"conditions": "single wells, supernatant of DC 0.1% media agitated 24 hours with human lipoma fat"}},
  "note": "Values joined by “and” are separate entries in the source; they are usually repeats but may differ in a detail not shown here. Equal values may be shown once.",
  "data": [
    {"smiles": "C[C@H](CCC(=O)[O-])[C@H]1CC[C@H]2[C@@H]3CC[C@@H]4C[C@H](O)CC[C@]4(C)[C@H]3C[C@H](O)[C@]12C.[Na+]", "note": "[DC, sodium deoxycholate]", "values": [
      {"measurement": "Percentage, DC 0.1%", "setting": "[1]; Control = 1, DC 0.1% media not exposed to fat", "result": 0.098},
      {"measurement": "Percentage, DC 0.1% + fat", "setting": "[1]; Control = 1, DC 0.1% media pre-incubated with human lipoma fat", "result": 0.610},
      {"measurement": "Average, DC 0.1%", "setting": "[1]; DC 0.1% media not exposed to fat", "result": 0.065},
      {"measurement": "Actual, DC 0.1%", "setting": "[1]; [7]", "result": "0.064 and 0.066"},
      {"measurement": "CHL (readings), DC 0.1%", "setting": "[1]; [7]", "result": "0.064 and 0.066"},
      {"measurement": "Actual, DC 0.1% + fat", "setting": "[1]; [8]", "result": "0.402 and 0.426 and 0.378"},
      {"measurement": "CHL (readings), DC 0.1% + fat", "setting": "[1]; [8]", "result": "0.402 and 0.426 and 0.378"},
      {"measurement": "Average, DC 0.1% + fat", "setting": "[1]; supernatant of DC 0.1% media agitated 24 hours with human lipoma fat", "result": 0.402},
      {"measurement": "fat cell viability (MTS purple dye, absorbance at 490)", "setting": "[2]", "result": "comparable loss of purple dye"},
      {"measurement": "LDH release (OD 490)", "setting": "[3]; 0.005% dilution", "result": "minimal LDH release"},
      {"measurement": "LDH release (OD 490)", "setting": "[3]; 0.05% and 0.5%", "result": "progressively more LDH released"},
      {"measurement": "cell lysis compared with PBF", "setting": "[3]; cell culture", "result": "less cell lysis"},
      {"measurement": "cell lysis (LDH release, FIG. 2b)", "setting": "[3]; over the tested dilutions", "result": "concentration dependent increase in cell lysis"},
      {"measurement": "Adipocytes surviving in DC only", "setting": "[4]; DC 0.01 (w/v %)", "result": "0.067 and 0.133 and 0.13"},
      {"measurement": "Adipocytes surviving in DC only", "setting": "[4]; DC 0.05 (w/v %)", "result": "0.01 and 0.009 and 0.008"},
      {"measurement": "Adipocytes surviving in DC only", "setting": "[4]; DC 0.1 (w/v %)", "result": 0},
      {"measurement": "Adipocytes surviving in DC only", "setting": "[4]; DC 0.5 (w/v %)", "result": 0},
      {"measurement": "LD50 (concentration at which 50% of the fat cells are dead)", "setting": "[4]; adipocytes, w/v %", "result": "around 0.02%"},
      {"measurement": "Average (DC only)", "setting": "[4]; DC 0.005 (w/v %)", "result": 0.111},
      {"measurement": "Average (DC only)", "setting": "[4]; DC 0.01 (w/v %)", "result": 0.131},
      {"measurement": "Average (DC only)", "setting": "[4]; DC 0.05 (w/v %)", "result": 0.09},
      {"measurement": "Average (DC only)", "setting": "[4]; DC 0.1 (w/v %)", "result": 0},
      {"measurement": "Average (DC only)", "setting": "[4]; DC 0.5 (w/v %)", "result": 0},
      {"measurement": "cell viability (MTS, OD 490)", "setting": "[5]; 0.005% dilution", "result": "little effect"},
      {"measurement": "cell viability (MTS, OD 490)", "setting": "[5]; 0.05% and 0.5% concentrations", "result": "progressively decreased"},
      {"measurement": "viability of cultured cells (MTS, FIG. 2a)", "setting": "[5]; approximately equal to the complete PBF", "result": "profoundly decreased the viability of cultured cells"},
      {"measurement": "Average", "setting": "[6]; PC 0 (w/v %)", "result": 0},
      {"measurement": "Average", "setting": "[6]; PC 0.01 (w/v %)", "result": 0},
      {"measurement": "Average", "setting": "[6]; PC 0.1 (w/v %)", "result": 0},
      {"measurement": "Average", "setting": "[6]; PC 1 (w/v %)", "result": 0},
      {"measurement": "Average", "setting": "[6]; PC 5 (w/v %)", "result": 0.009},
      {"measurement": "adipolysis of cultured adipocytes", "setting": "[6]; 4.75% sodium deoxycholate, in vitro", "result": 100, "unit": "%"},
      {"measurement": "Adipocytes surviving by adding PC to 4.75% DC", "setting": "[6]; PC 0 (w/v %)", "result": 0},
      {"measurement": "Adipocytes surviving by adding PC to 4.75% DC", "setting": "[6]; PC 0.01 (w/v %)", "result": 0},
      {"measurement": "Adipocytes surviving by adding PC to 4.75% DC", "setting": "[6]; PC 0.1 (w/v %)", "result": 0},
      {"measurement": "Adipocytes surviving by adding PC to 4.75% DC", "setting": "[6]; PC 1 (w/v %)", "result": 0}
    ]}
  ]
}
